Like-named read-outs stand apart in the source and are kept apart here.
System: Rhipicephalus sanguineus
Assay: In vitro immersion of engorged female ticks in (S)-methoprene: oviposition, egg mass weight, egg hatch
Conditions: for Eggs Weight: Day 13; for Eggs Hatch (%): 48 days after exposure; for inhibition at 100 ppm / inhibition at 1000 ppm / inhibition at 10000 ppm / inhibition at 100000 ppm: Rhipicephalus sanguineus; for Egg Mass Per Tick / Total Egg Mass / Total Viable Egg Mass / Viable Egg Mass Per Tick / Reduction in Ticks Laying Eggs: replicates combined
Method: The effect of (S)-methoprene on oviposition, egg mass weights, and egg eclosion was measured in adult females of a colonized strain of the brown dog tick, Rhipicephalus sanguineus. Approximately fifty R. sanguineus ticks were fed on twelve dogs each. Fully engorged females that dropped from the dogs over a period of two days were collected and combined into replicates. The following replicates were formed: Replicate A-50 ticks, Replicate B-40 ticks, and Replicate C-10 ticks. From each replicate A-C, 5 groups of equal numbers of ticks were formed, each group of ticks having similar combined body weights. Each of the 5 groups of ticks was randomly allocated to a treatment group.
The treatment groups were: Treatment I-Control: acetone/water (40%: 60%); Treatment 2-100 ppm (S)-methoprene dissolved in acetone/water (40:60); Treatment 3-1,000 ppm (S)-methoprene dissolved in acetone/water (40:60); Treatment 4-10,000 ppm (S)-methoprene dissolved in acetone/water (40:60); and Treatment 5-100,000 ppm (S)-methoprene dissolved in acetone/water (40:60). Each group of ticks was immersed in the appropriate test solution for two mins, after which they were removed, dried on a paper towel and placed in a clean container. All ticks in all treatment groups were kept in an environmental chamber maintained at 26-27° Celsius and 65-87% relative humidity. The number of ticks that laid eggs and total egg mass weights for each replicate of each treatment group was recorded 13 days after exposure to treatment. Additionally, an estimation of percentage of egg hatching for each replicate in each treatment group was recorded 48 days after exposure to treatment.
The number of ticks laying eggs, egg mass weights, percentage of eggs that hatched, and weight of viable eggs are provided in Table 1.

[1] = 100 ppm, Replicate A, 10 ticks treated
[2] = 100 ppm, Replicate B, 8 ticks treated
[3] = 100 ppm, Replicate C, 2 ticks treated
[4] = 1,000 ppm, Replicate A, 10 ticks treated
[5] = 1,000 ppm, Replicate B, 8 ticks treated
[6] = 1,000 ppm, Replicate C, 2 ticks treated
[7] = 10,000 ppm, Replicate A, 10 ticks treated
[8] = 10,000 ppm, Replicate B, 8 ticks treated
[9] = 10,000 ppm, Replicate C, 2 ticks treated
[10] = 100,000 ppm, Replicate A, 10 ticks treated
[11] = 100,000 ppm, Replicate B, 8 ticks treated
[12] = 100,000 ppm, Replicate C, 2 ticks treated
[13] = Treatment 3: 1,000 ppm, compared to control
[14] = Treatment 4: 10,000 ppm, compared to control
[15] = Treatment 5: 100,000 ppm, compared to control

`COC(C)(C)CCC[C@H](C)C/C=C/C(C)=C/C(=O)OC(C)C` [(S)-methoprene] was tested, and the “Eggs Viable” value [1] was 1.65 g, the “Number of Ticks Laying Eggs (Day 13)” value [1] was 10 and the “Eggs Weight” value [1] was 1.67 g. The “Eggs Hatch (%)” value (100 ppm, Replicate A) was 99%, the “Eggs Viable” value [2] was 1.36 g and the “Number of Ticks Laying Eggs (Day 13)” value [2] was 8. The “Eggs Weight” value [2] was 1.36 g, the “Eggs Hatch (%)” value (100 ppm, Replicate B) was 100% and the “Eggs Viable” value [3] was 0.18 g. For the same molecule, the “Number of Ticks Laying Eggs (Day 13)” value [3] was 2, the “Eggs Weight” value [3] was 0.35 g and the “Eggs Hatch (%)” value (100 ppm, Replicate C) was 50%. The “Eggs Viable” value [4] was 0.26 g, the “Number of Ticks Laying Eggs (Day 13)” value [4] was 9 and the “Eggs Weight” value [4] was 1.03 g. For the same molecule, the “Eggs Hatch (%)” value (1,000 ppm, Replicate A) was 25%, the “Eggs Viable” value [5] was 0.29 g and the “Number of Ticks Laying Eggs (Day 13)” value [5] was 8. For the same molecule, the “Eggs Weight” value [5] was 0.95 g, the “Eggs Hatch (%)” value (1,000 ppm, Replicate B) was 30% and the “Eggs Viable” value [6] was 0.10 g. The “Number of Ticks Laying Eggs (Day 13)” value [6] was 2, the “Eggs Weight” value [6] was 0.28 g and the “Eggs Hatch (%)” value (1,000 ppm, Replicate C) was 35%. The “Eggs Viable” value [7] was 0 g, the “Number of Ticks Laying Eggs (Day 13)” value [7] was 10 and the “Eggs Weight” value [7] was 0.97 g. The “Eggs Hatch (%)” value (10,000 ppm, Replicate A) was 0%, the “Eggs Viable” value [8] was 0 g and the “Number of Ticks Laying Eggs (Day 13)” value [8] was 8. For the same molecule, the “Eggs Weight” value [8] was 0.57 g, the “Eggs Hatch (%)” value (10,000 ppm, Replicate B) was 0% and the “Eggs Viable” value [9] was 0 g. The “Number of Ticks Laying Eggs (Day 13)” value [9] was 2, the “Eggs Weight” value [9] was 0.14 g and the “Eggs Hatch (%)” value (10,000 ppm, Replicate C) was 0%. The “Eggs Viable” value [10] was 0 g, the “Number of Ticks Laying Eggs (Day 13)” value [10] was 8 and the “Eggs Weight” value [10] was 0.59 g. The “Eggs Hatch (%)” value (100,000 ppm, Replicate A) was 0%, the “Eggs Viable” value [11] was 0 g and the “Number of Ticks Laying Eggs (Day 13)” value [11] was 8. The “Eggs Weight” value [11] was 0.39 g, the “Eggs Hatch (%)” value (100,000 ppm, Replicate B) was 0% and the “Eggs Viable” value [12] was 0 g. For the same molecule, the “Number of Ticks Laying Eggs (Day 13)” value [12] was 2, the “Eggs Weight” value [12] was 0.05 g and the “Eggs Hatch (%)” value (100,000 ppm, Replicate C) was 0%. The inhibition at 100 ppm (Treatment 2: 100 ppm, compared to control, read-out: Reduction Viable Egg Mass Per Tick) was 0%, the inhibition at 100 ppm (Treatment 2: 100 ppm, compared to control, read-out: Reduction in Viable Egg Mass) was 0% and the inhibition at 1000 ppm (Treatment 3: 1,000 ppm, compared to control, read-out: Reduction Viable Egg Mass Per Tick) was 78%. For the same molecule, the inhibition at 1000 ppm (Treatment 3: 1,000 ppm, compared to control, read-out: Reduction in Viable Egg Mass) was 79%, the inhibition at 10000 ppm (Treatment 4: 10,000 ppm, compared to control, read-out: Reduction Viable Egg Mass Per Tick) was 100% and the inhibition at 10000 ppm (Treatment 4: 10,000 ppm, compared to control, read-out: Reduction in Viable Egg Mass) was 100%. For the same molecule, the inhibition at 100000 ppm (Treatment 5: 100,000 ppm, compared to control, read-out: Reduction Viable Egg Mass Per Tick) was 100%, the inhibition at 100000 ppm (Treatment 5: 100,000 ppm, compared to control, read-out: Reduction in Viable Egg Mass) was 100% and the “Egg Mass Per Tick” value (Treatment 2: 100 ppm) was 0.169 g. The “Total Egg Mass” value (Treatment 2: 100 ppm) was 3.38 g, the “Total Viable Egg Mass” value (Treatment 2: 100 ppm) was 3.19 g and the “Viable Egg Mass Per Tick” value (Treatment 2: 100 ppm) was 0.160 g. The “Reduction in Ticks Laying Eggs” value (Treatment 2: 100 ppm, compared to control) was 0%, the “Egg Mass Per Tick Reduction” value [13] was 28% and the “Reduction of Total Egg Mass” value [13] was 32%. The “Egg Mass Per Tick” value (Treatment 3: 1,000 ppm) was 0.119 g, the “Total Egg Mass” value (Treatment 3: 1,000 ppm) was 2.26 g and the “Total Viable Egg Mass” value (Treatment 3: 1,000 ppm) was 0.65 g. The “Viable Egg Mass Per Tick” value (Treatment 3: 1,000 ppm) was 0.034 g, the “Reduction in Ticks Laying Eggs” value [13] was 5% and the “Egg Mass Per Tick Reduction” value [14] was 49%. For the same molecule, the “Reduction Viable Egg Mass Per Tick” value [14] was 100%, the “Reduction of Total Egg Mass” value [14] was 49% and the “Egg Mass Per Tick” value (Treatment 4: 10,000 ppm) was 0.084 g. For the same molecule, the “Total Egg Mass” value (Treatment 4: 10,000 ppm) was 1.68 g, the “Total Viable Egg Mass” value (Treatment 4: 10,000 ppm) was 0 g and the “Viable Egg Mass Per Tick” value (Treatment 4: 10,000 ppm) was 0 g. For the same molecule, the “Reduction in Ticks Laying Eggs” value [14] was 0%, the “Egg Mass Per Tick Reduction” value [15] was 65% and the “Reduction in Viable Egg Mass” value [15] was 100%. For the same molecule, the “Reduction of Total Egg Mass” value [15] was 69%, the “Egg Mass Per Tick” value (Treatment 5: 100,000 ppm) was 0.057 g and the “Total Egg Mass” value (Treatment 5: 100,000 ppm) was 1.03 g. The “Total Viable Egg Mass” value (Treatment 5: 100,000 ppm) was 0 g, the “Viable Egg Mass Per Tick” value (Treatment 5: 100,000 ppm) was 0 g and the “Reduction in Ticks Laying Eggs” value [15] was 10%.

Reference: patent US20060046988A1, “Methoprene formulations for the control of tick infestations” (priority 2004, published 2006)
